Laboratory results taken from US20140350370A1, “GLUCOSE SENSING ASSAY” (The Texas A&M University System, priority 2013, published 2014).
Like-named read-outs stand apart in the source and are kept apart here.

How the values were obtained:
[1] = biological target: T1, ConA (Canavalia ensiformis, UniProt P02866); conditions: cited from earlier work
[2] = biological target: T1, ConA
Description: To explore whether the interaction of ConA with the core trimannose leads to aggregation in free solution, dynamic light scattering (DLS) measurements were performed. […] The TRIS buffer was 10 mM TRIS, 1 M NaCl, 1 mM CaCl2, 1 mM MnCl2, at pH 7.4. The dextran was 2 MDa and used as received from Sigma.
As controls, solutions of the individual components were also scanned to determine the particle size in the absence of aggregation. The final concentration was 3 μM for the competing ligand and 3 μM for ConA. Negative controls were run for each competing ligand (3 μM) without ConA present. ConA was also independently added to a separate control cuvette (3 μM). All solutions were in TRIS buffer and were filtered prior to combining the solutions. After 12 hours, the solutions were mixed to allow for the re-suspension of any settled material and dynamic light scattering studies were performed. The reported data is the average particle size as determined by percent-volume.

For `O=C[C@H](O)[C@@H](O)[C@@H](O)[C@H](O)CO` [galactose], the “affinity to ConA” value [1] is listed as “no affinity”.
For `OC[C@H]1O[C@H](OC[C@H]2OC(O)[C@@H](O)[C@@H](O[C@H]3O[C@H](CO)[C@@H](O)[C@H](O)[C@@H]3O)[C@@H]2O)[C@@H](O)[C@@H](O)[C@@H]1O` (stereo partly drawn) [trimannose, 3,6-Di-O-(α-D-mannopyranosyl)-D-mannopyranose], the “average size of particles in solution with ConA” value ([2]; 3 μM ligand, 3 μM ConA, TRIS buffer, 12 hours, 22° C., DLS) is listed as “did not increased in size”, the “aggregation when paired with ConA” value ([2]; summary statement, DLS study) is listed as “no aggregation” and the “affinity to ConA” value ([1]; previously shown / literature value) is listed as ~330000 M⁻¹.
In the case of methyl mannose, the “binding affinity to ConA relative to glucose” value ([1]; known value) is listed as 20-40 times.
